Experimental data from patent US20080153760A1, “Haircare Use Of C-Glycoside Derivatives” (L'OREAL, priority 2005, published 2008).

Experiment: Degree of premature breaking of hair, tensile test
Conditions: parameter R; natural African hair immersed three days at 40° C. in composition of 5% by weight compound and 95% water, no final rinsing; hairs 30 mm, pulled at 10 mm/minute; untreated control 0.27
Method: The hair used for the following tests was regulated beforehand in a glove box at 25° C. and 45% relative humidity for about 24 hours. This was natural curly African hair.
The four abovementioned compounds were respectively formulated in the form of a composition comprising 5% by weight of the compound under consideration and 95% by weight of water relative to the total weight of the composition.
Four batches of natural African hair were treated, respectively, with each of the four compositions according to the following protocol: the hair is immersed for three days at 40° C. in the composition under consideration, without final rinsing, and its degree of premature breaking is then assessed by comparison with that of a batch of untreated natural control hair.
The degree of premature breaking of the hair is characterized by the following parameter R:
R=1−(number of hairs showing breakage under tension in the hardening zone/N),
N being the total number of hairs tested.
The corresponding mechanical tests are performed using a Zwicko tensile testing machine on hairs 30 mm long. The hairs were pulled at a speed of 10 mm/minute.

| SMILES | Degree of premature breaking |
| --- | --- |
| CC(O)C[C@@H]1OC[C@@H](O)[C@H](O)[C@H]1O (stereo partly drawn) [Compound 1, C-β-D-xylopyranoside-2-hydroxypropane] | 0.17 |
| CC(=O)C[C@@H]1OC[C@@H](O)[C@H](O)[C@H]1O [Compound 2, C-β-D-Xylopyranoside-n-propan-2-one] | 0.20 |
| CC(=O)C[C@@H]1O[C@H](CO)[C@@H](O[C@@H]2O[C@H](CO)[C@H](O)[C@H](O)[C@H]2O)[C@H](O)[C@H]1O [Compound 3, C-β-D-Lactopyranoside-n-propan-2-one] | 0.13 |
| CC(=O)C[C@@H]1O[C@H](CO)[C@@H](O)[C@H](O)[C@H]1O [Compound 4, C-β-D-glucopyranoside-n-propan-2-one] | 0.23 |
